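All cell lines were grown in 96-well plates and treated with compound for 48 hours. Abbreviation: GI50, concentration required for 50% inhibition of growth. TGI denotes the concentration required for complete inhibition of growth.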
test system: ACHN renal; experiment: NCI tumour cell line growth inhibition, 48 h

SMILES	TGI [µM]	GI50 [µM]
COCCCNc1nc(N)c(C#N)c(C#N)c1C#N	> 10	–
CC1CCCCNC1=S (centres undefined)	> 10	–
CC1CC2=C(S(=O)(=O)c3ccccc3)CC(S(=O)(=O)c3ccccc3)(S(=O)(=O)c3ccccc3)CC21 (centres undefined)	> 100	–
CCC(C)NC1=NCC(C)S1 (centres undefined)	> 100	–
Clc1ccc(C[P+](c2ccccc2)(c2ccccc2)c2ccccc2)c(Cl)c1	47.6	–
COc1ccccc1CNCCCN1C(=O)c2ccc3c4c(ccc(c24)C1=O)C(=O)N(CCCNCCNCCCN)C3=O	79.8	4.45
NNC(=O)c1c(SCc2ccccc2)nc2c3ccccc3ccn12	> 100	–
COc1cc2oc(-c3ccc(O)cc3)c(OC)c(=O)c2c(O)c1OC	> 100	35.8
C[C@@H]1Nc2cc(NC(=O)OCCF)nc(N)c2N=C1c1ccccc1	> 100	< 0.0001

test system: BT-549 breast; experiment: NCI tumour cell line growth inhibition, 48 h

SMILES	TGI [µM]	GI50 [µM]
CC1CCCCNC1=S (centres undefined)	> 10	–
CCC(C)NC1=NCC(C)S1 (centres undefined)	> 100	–
COc1ccccc1CNCCCN1C(=O)c2ccc3c4c(ccc(c24)C1=O)C(=O)N(CCCNCCNCCCN)C3=O	6.43	2.58
NNC(=O)c1c(SCc2ccccc2)nc2c3ccccc3ccn12	70.2	–
COc1cc2oc(-c3ccc(O)cc3)c(OC)c(=O)c2c(O)c1OC	> 100	27.7
C[C@@H]1Nc2cc(NC(=O)OCCF)nc(N)c2N=C1c1ccccc1	> 100	–

test system: COLO 205 colon; experiment: NCI tumour cell line growth inhibition, 48 h

SMILES	TGI [µM]	GI50 [µM]
COCCCNc1nc(N)c(C#N)c(C#N)c1C#N	> 10	–
CCOC(=O)c1ccc(N[C@@H]2c3cc4c(cc3C(c3cc(OC)c(O)c(OC)c3)[C@H]3C(=O)OCC32)OCO4)cc1O (some centres undefined)	7.69	–
CC1CC2=C(S(=O)(=O)c3ccccc3)CC(S(=O)(=O)c3ccccc3)(S(=O)(=O)c3ccccc3)CC21 (centres undefined)	> 100	–
CCC(C)NC1=NCC(C)S1 (centres undefined)	> 100	–
Clc1ccc(C[P+](c2ccccc2)(c2ccccc2)c2ccccc2)c(Cl)c1	2.44	–
NNC(=O)c1c(SCc2ccccc2)nc2c3ccccc3ccn12	> 100	–
COc1cc2oc(-c3ccc(O)cc3)c(OC)c(=O)c2c(O)c1OC	> 100	32.1
C[C@@H]1Nc2cc(NC(=O)OCCF)nc(N)c2N=C1c1ccccc1	< 0.0001	–

test system: HCT-116 colon; experiment: NCI tumour cell line growth inhibition, 48 h

SMILES	TGI [µM]	GI50 [µM]
COCCCNc1nc(N)c(C#N)c(C#N)c1C#N	> 10	–
CCOC(=O)c1ccc(N[C@@H]2c3cc4c(cc3C(c3cc(OC)c(O)c(OC)c3)[C@H]3C(=O)OCC32)OCO4)cc1O (some centres undefined)	8.26	–
CC1CC2=C(S(=O)(=O)c3ccccc3)CC(S(=O)(=O)c3ccccc3)(S(=O)(=O)c3ccccc3)CC21 (centres undefined)	> 100	–
CCC(C)NC1=NCC(C)S1 (centres undefined)	> 100	–
Clc1ccc(C[P+](c2ccccc2)(c2ccccc2)c2ccccc2)c(Cl)c1	10.3	–
COc1ccccc1CNCCCN1C(=O)c2ccc3c4c(ccc(c24)C1=O)C(=O)N(CCCNCCNCCCN)C3=O	3.04	0.717
COc1cc2oc(-c3ccc(O)cc3)c(OC)c(=O)c2c(O)c1OC	> 100	34.8
C[C@@H]1Nc2cc(NC(=O)OCCF)nc(N)c2N=C1c1ccccc1	> 100	–

test system: NCI-H23 lung; experiment: NCI tumour cell line growth inhibition, 48 h

SMILES	TGI [µM]	GI50 [µM]
COCCCNc1nc(N)c(C#N)c(C#N)c1C#N	> 10	–
CC1CCCCNC1=S (centres undefined)	> 10	–
CCOC(=O)c1ccc(N[C@@H]2c3cc4c(cc3C(c3cc(OC)c(O)c(OC)c3)[C@H]3C(=O)OCC32)OCO4)cc1O (some centres undefined)	4.26	–
CC1CC2=C(S(=O)(=O)c3ccccc3)CC(S(=O)(=O)c3ccccc3)(S(=O)(=O)c3ccccc3)CC21 (centres undefined)	> 100	–
CCC(C)NC1=NCC(C)S1 (centres undefined)	> 100	–
Clc1ccc(C[P+](c2ccccc2)(c2ccccc2)c2ccccc2)c(Cl)c1	13	–
COc1ccccc1CNCCCN1C(=O)c2ccc3c4c(ccc(c24)C1=O)C(=O)N(CCCNCCNCCCN)C3=O	5.59	1.72
NNC(=O)c1c(SCc2ccccc2)nc2c3ccccc3ccn12	52.6	–
COc1cc2oc(-c3ccc(O)cc3)c(OC)c(=O)c2c(O)c1OC	> 100	63.4
C[C@@H]1Nc2cc(NC(=O)OCCF)nc(N)c2N=C1c1ccccc1	> 100	–

test system: OVCAR-5 ovarian; experiment: NCI tumour cell line growth inhibition, 48 h

SMILES	TGI [µM]	GI50 [µM]
COCCCNc1nc(N)c(C#N)c(C#N)c1C#N	> 10	–
CC1CCCCNC1=S (centres undefined)	> 10	–
CCOC(=O)c1ccc(N[C@@H]2c3cc4c(cc3C(c3cc(OC)c(O)c(OC)c3)[C@H]3C(=O)OCC32)OCO4)cc1O (some centres undefined)	> 100	–
CC1CC2=C(S(=O)(=O)c3ccccc3)CC(S(=O)(=O)c3ccccc3)(S(=O)(=O)c3ccccc3)CC21 (centres undefined)	> 100	–
CCC(C)NC1=NCC(C)S1 (centres undefined)	> 100	–
Clc1ccc(C[P+](c2ccccc2)(c2ccccc2)c2ccccc2)c(Cl)c1	18.9	–
COc1ccccc1CNCCCN1C(=O)c2ccc3c4c(ccc(c24)C1=O)C(=O)N(CCCNCCNCCCN)C3=O	19.8	5.24
NNC(=O)c1c(SCc2ccccc2)nc2c3ccccc3ccn12	54.8	–
COc1cc2oc(-c3ccc(O)cc3)c(OC)c(=O)c2c(O)c1OC	> 100	> 100
C[C@@H]1Nc2cc(NC(=O)OCCF)nc(N)c2N=C1c1ccccc1	> 100	–

test system: OVCAR-8 ovarian; experiment: NCI tumour cell line growth inhibition, 48 h

SMILES	TGI [µM]	GI50 [µM]
COCCCNc1nc(N)c(C#N)c(C#N)c1C#N	> 10	–
CC1CCCCNC1=S (centres undefined)	> 10	–
CCOC(=O)c1ccc(N[C@@H]2c3cc4c(cc3C(c3cc(OC)c(O)c(OC)c3)[C@H]3C(=O)OCC32)OCO4)cc1O (some centres undefined)	> 21.9	–
CC1CC2=C(S(=O)(=O)c3ccccc3)CC(S(=O)(=O)c3ccccc3)(S(=O)(=O)c3ccccc3)CC21 (centres undefined)	> 100	–
Clc1ccc(C[P+](c2ccccc2)(c2ccccc2)c2ccccc2)c(Cl)c1	20.1	–
COc1ccccc1CNCCCN1C(=O)c2ccc3c4c(ccc(c24)C1=O)C(=O)N(CCCNCCNCCCN)C3=O	11.7	2.08
NNC(=O)c1c(SCc2ccccc2)nc2c3ccccc3ccn12	> 100	–
COc1cc2oc(-c3ccc(O)cc3)c(OC)c(=O)c2c(O)c1OC	> 100	86.1
C[C@@H]1Nc2cc(NC(=O)OCCF)nc(N)c2N=C1c1ccccc1	30	–

test system: SF-268 CNS; experiment: NCI tumour cell line growth inhibition, 48 h

SMILES	TGI [µM]	GI50 [µM]
COCCCNc1nc(N)c(C#N)c(C#N)c1C#N	> 10	–
CC1CCCCNC1=S (centres undefined)	> 10	–
CCOC(=O)c1ccc(N[C@@H]2c3cc4c(cc3C(c3cc(OC)c(O)c(OC)c3)[C@H]3C(=O)OCC32)OCO4)cc1O (some centres undefined)	25.3	–
CC1CC2=C(S(=O)(=O)c3ccccc3)CC(S(=O)(=O)c3ccccc3)(S(=O)(=O)c3ccccc3)CC21 (centres undefined)	> 100	–
CCC(C)NC1=NCC(C)S1 (centres undefined)	> 100	–
Clc1ccc(C[P+](c2ccccc2)(c2ccccc2)c2ccccc2)c(Cl)c1	24	–
COc1ccccc1CNCCCN1C(=O)c2ccc3c4c(ccc(c24)C1=O)C(=O)N(CCCNCCNCCCN)C3=O	11.6	2.13
NNC(=O)c1c(SCc2ccccc2)nc2c3ccccc3ccn12	> 100	–
COc1cc2oc(-c3ccc(O)cc3)c(OC)c(=O)c2c(O)c1OC	> 100	79

test system: SW-620 colon; experiment: NCI tumour cell line growth inhibition, 48 h

SMILES	TGI [µM]	GI50 [µM]
COCCCNc1nc(N)c(C#N)c(C#N)c1C#N	> 10	–
CC1CCCCNC1=S (centres undefined)	> 10	–
CCOC(=O)c1ccc(N[C@@H]2c3cc4c(cc3C(c3cc(OC)c(O)c(OC)c3)[C@H]3C(=O)OCC32)OCO4)cc1O (some centres undefined)	> 48.2	–
CC1CC2=C(S(=O)(=O)c3ccccc3)CC(S(=O)(=O)c3ccccc3)(S(=O)(=O)c3ccccc3)CC21 (centres undefined)	> 100	–
CCC(C)NC1=NCC(C)S1 (centres undefined)	> 100	–
Clc1ccc(C[P+](c2ccccc2)(c2ccccc2)c2ccccc2)c(Cl)c1	21.4	–
COc1ccccc1CNCCCN1C(=O)c2ccc3c4c(ccc(c24)C1=O)C(=O)N(CCCNCCNCCCN)C3=O	8.91	1.74
NNC(=O)c1c(SCc2ccccc2)nc2c3ccccc3ccn12	> 100	–
COc1cc2oc(-c3ccc(O)cc3)c(OC)c(=O)c2c(O)c1OC	> 100	> 100
C[C@@H]1Nc2cc(NC(=O)OCCF)nc(N)c2N=C1c1ccccc1	> 100	–

test system: UACC-62 melanoma; experiment: NCI tumour cell line growth inhibition, 48 h

SMILES	TGI [µM]	GI50 [µM]
COCCCNc1nc(N)c(C#N)c(C#N)c1C#N	> 10	–
CC1CCCCNC1=S (centres undefined)	> 10	–
CCOC(=O)c1ccc(N[C@@H]2c3cc4c(cc3C(c3cc(OC)c(O)c(OC)c3)[C@H]3C(=O)OCC32)OCO4)cc1O (some centres undefined)	2.4	–
CC1CC2=C(S(=O)(=O)c3ccccc3)CC(S(=O)(=O)c3ccccc3)(S(=O)(=O)c3ccccc3)CC21 (centres undefined)	> 100	–
CCC(C)NC1=NCC(C)S1 (centres undefined)	> 100	–
Clc1ccc(C[P+](c2ccccc2)(c2ccccc2)c2ccccc2)c(Cl)c1	12.6	–
COc1ccccc1CNCCCN1C(=O)c2ccc3c4c(ccc(c24)C1=O)C(=O)N(CCCNCCNCCCN)C3=O	3.82	1.68
NNC(=O)c1c(SCc2ccccc2)nc2c3ccccc3ccn12	29.6	–
COc1cc2oc(-c3ccc(O)cc3)c(OC)c(=O)c2c(O)c1OC	> 100	79.3
C[C@@H]1Nc2cc(NC(=O)OCCF)nc(N)c2N=C1c1ccccc1	> 100	–

Source: PubChem BioAssay (NCI)
